Test results: patent publication US7534769B2, “Compositions and methods for enhancing delivery of therapeutic agents to cells” (Canji, Inc., priority 1996, dated 2009)
“Also recorded” adds a separate entry of the source. Blank lines part the entries; values can stand above or below the molecule they belong to.

Experiments:
bladder = assay: Gene transfer activity of water-soluble Syn3 analogs in vivo, whole organ Xgal staining; parameters: species or system rat; details: for gene transfer activity compared to controls: 1 mg/ml
Procedure: A concentration of 1 mg/ml was chosen for initial testing of both compounds.
The solution of A-TMA was prepared by dissoluting 10 mg of A-TMA into 10 ml Dulbecco's PBS. Glycerol was added to provide a final concentration of 10 mg/ml. All solutions were sterile filtered prior to use (0.2 μm Acrodisc syring filter). The virus (BGCG 70AAB) was diluted 1:10 into either this A-TMA solution, or into Dulbecco's PBS-glycerol prior to administration.
Ten mg of A-HCl was dissoluted into this buffer and sterile filtered prior to use (0.2 μm Acrodisc suring filter). The virus (BGCG 70AAB) was diluted 1:10 into this solution prior to administration. For comparison, the virus diluted into this buffer without A-HCl was also tested.
Female HSD rats were anesthetized using isofluorane. The rats were transuretherally catheterized into the bladder using PE50 tubing lubricated with K-Y jelly. A tie-off was installed on the external urethra to prevent back leakage. Urine, if any, was removed and the bladder was flushed with 0.5 ml PBS and emptied. rAd was diluted to the desired concentration (1:10) and instilled for 45 minutes. The dosing material was removed, noting the return volume. The bladder was flushed with 0.5 ml PBS and emptied. The tie-off and catheter were removed, and the animals were allowed to recover in cages.
After 48 hours, the animals were sacrificed and their bladders inflation fixed with 0.5 ml fixative for 1 hour. The bladders were then rinsed overnight and whole organ Xgal staining was conducted.

bladder epithelium [1] = assay: rAd-βgal gene transfer to bladder epithelium in detergent formulations, Xgal staining score and gross pathology; details: detergents at their critical micellization concentration
Procedure: rAd-βgal was formulated in different detergents at their critical micellization concentration to evaluate efficiency of gene transfer to the bladder epithelium. Female rats (about 200 g b/w, Harlan Sprague Dawley) were anesthetized with isoflurane and received a single intravesical administration of rAd-βgal (1×10^11 PN/ml) in different detergent formulations (see Table I). Before instillation, bladders were flushed with PBS and then emptied. rAd-βgal was then instilled in a volume of 0.5 ml. The instilled solution was retained in the bladder for 45 minutes. The bladders were then flushed with PBS, and the animals were permitted to recover from the procedure. 48 hours after administration, the rats were sacrificed, the bladders harvested, and fixed in formalin. After fixation, the bladders were opened longitudinally so that the urothelium was exposed to the chromogen (Xgal), that is converted to a blue color, if reporter gene (β-galactosidase) expression is present. The luminal epithelial surface of the whole bladder was photographed an blue staining scored: + (minimal staining), ++ (moderate staining), +++ intense staining covering the whole bladder epithelial surface.
Briefly, in anaesthetized female rats rAd-βgal (1×10^11 PN/ml) was administered into the bladder via an intravesical catheter. rAd-βgal was formulated in different concentrations of Big CHAP (CALBIOCHEM®). A volume of 0.5 ml was injected and remained instilled in the bladder for 45 minutes. The animals were sacrificed 48 hours later, the bladder fixed in 4% formalin/glutaraldehyde, opened longitudinally, and the β-galactosidase enzyme activity measured using Xgal substrate. The intensity of blue staining correlates with the βgal-transgene expression.
Effects of higher recombinant adenovirus concentrations were also tested. Briefly, in anaesthetized female rats different concentrations of rAd-βgal, formulated in 7 mM Big CHAP (CALBIOCHEM®) were administered into the bladder via an intravesical catheter. The animals were sacrificed 48 hours later, the bladder fixed in 4% formalin/glutaraldehyde, opened longitudinally, and Xgal stained.

bladder epithelium [2] = assay: Effect of Big CHAP sources, purified Big CHAP and impurities on rAd-βgal gene transfer to bladder epithelium; type: in vivo, rat; details: for gene transfer and expression: column chromatography purified BC, 30 mg/ml; for rAd mediated gene transfer and expression: Big CHAP at 6 mg/ml; for epithelial gene expression: increasing concentrations of BC (Sigma), 20 mg/ml; for cystitis / bladder irritation: Impurity I
Procedure: Alternate commercial sources of Big CHAP (BC) were tested for the ability to enhance rAd (recombinant adenovirus) mediated gene transfer and expression, essentially according to the method described above in Example 8.
The results are depicted in FIG. 17.
rAd-βgal was formulated in 30 mg/ml of the column chromatography purified material of both BCs and gene transfer to the bladder epithelium tested as described above.
Three impurities of BC (CALBIOCHEM®) were detected by TLC (FIG. 15) and isolated by column chromatography for gene transfer studies. Impurity I and a mixture of impurity II and impurity III were diluted in VPBS (0.6 mg/ml or 6 mg/ml) to test their efficiency in improving rAd mediated gene transfer to the bladder epithelium. […] Positive control formulation (BC, CALBIOCHEM®, upper panel, left), and the negative control formulations (BC—CALBIOCHEM®, column chromatography purified and BC—Sigma) were used at a concentration of 6 mg/ml (upper panel, right).
In this experiment, 10 mg/ml of BC (Sigma, FIG. 20 upper middle panel) was reconstituted with Impurity III (upper right panel), impurity II (lower left panel), or synthesized analog of impurity III (lower right panel). rAd-βgal, 1×10^11 PN/ml, was prepared in the spiked formulations and administered intravesically as described above.
Calbiochem Big CHAP was fractionated by column chromatography to obtain essentially pure impurities “1”, “2”, and “3” for biological testing as well as structural analysis.

[3] = Solubility and dissolution behaviour; type: physicochemical

Molecule: C[C@H](CCC(=O)NCCCN(CCC[N+](C)(C)C)C(=O)CC[C@@H](C)[C@H]1CC[C@H]2[C@@H]3[C@H](O)C[C@@H]4C[C@H](O)CC[C@]4(C)[C@H]3C[C@H](O)[C@]12C)[C@H]1CC[C@H]2[C@@H]3[C@H](O)C[C@@H]4C[C@H](O)CC[C@]4(C)[C@H]3C[C@H](O)[C@]12C.[Cl-] [A-TMA]
gene transfer activity compared to controls (bladder): significantly above those levels obtained by controls
gene transfer activity (bladder; individual animals, 1 mg/ml in PBS/1% Glycerol (A-TMA) or Buffer D (A-HCl)): + +

Molecule: CCCCCCCCCCCCCC[N+](C)(C)CCCS(=O)(=O)[O-] [Zwittergent ® 3-14, reference compound]
gene transfer to the bladder epithelium (Table I) (bladder epithelium [1]): enhanced gene transfer dramatically

Molecule: C[C@H](CCC(=O)NCCC[N+](C)(C)CCCS(=O)(=O)[O-])[C@H]1CC[C@H]2[C@@H]3[C@H](O)C[C@@H]4C[C@H](O)CC[C@]4(C)[C@H]3C[C@H](O)[C@]12C.O [Chaps, 3-[(3-Cholamidopropyl)dimethylammoniol]-1-propanesulfonate hydrate, reference compound]
gene transfer to the bladder epithelium (Table I) (bladder epithelium [1]): enhanced gene transfer dramatically

Molecule: C[C@H](CCC(=O)N(CCCNC(=O)[C@H](O)[C@@H](O)[C@H](O)[C@H](O)CO)CCCNC(=O)[C@H](O)[C@@H](O)[C@H](O)[C@H](O)CO)[C@H]1CC[C@H]2[C@@H]3[C@H](O)C[C@@H]4C[C@H](O)CC[C@]4(C)[C@H]3C[C@H](O)[C@]12C [purified Big CHAP (Sigma)]
gene transfer and expression (bladder epithelium [2]): reduced ability to enhance gene transfer
gene transfer and expression (bladder epithelium [2]; listed as purified Sigma BC): without any effect

Molecule: C[C@H](CCC(=O)N(CCCNC(=O)[C@H](O)[C@@H](O)[C@H](O)[C@H](O)CO)CCCNC(=O)[C@H](O)[C@@H](O)[C@H](O)[C@H](O)CO)[C@H]1CC[C@H]2[C@@H]3[C@H](O)C[C@@H]4C[C@H](O)CC[C@]4(C)[C@H]3C[C@H](O)[C@]12C [Big CHAP (Sigma), N,N,bis-(3-D-gluconamidopropyl)-cholamide]
gene transfer (bladder epithelium [2]; 26 mg/ml): found to enhance gene transfer
rAd mediated gene transfer and expression (bladder epithelium [2]; listed as BC—Sigma): did not markedly improve rAd mediated gene transfer
rAd mediated gene transfer and expression (bladder epithelium [2]; listed as Sigma Big CHAP): does not enhance gene transfer
epithelial gene expression (bladder epithelium [2]): enhanced gene transfer at higher concentrations
epithelial gene expression (bladder epithelium [2]; listed as Sigma BC): improved epithelial gene expression

Molecule: Pluronic F68 [reference compound]
gene transfer to the bladder epithelium (Table I) (bladder epithelium [1]): did not have similar effects

solubility in saline [3]: not completely soluble in saline
pH of solution ([3]; dissolution into dH2O): 4.7
Molecule: C[C@H](CCC(=O)NCCCN(CCCN)C(=O)CC[C@@H](C)[C@H]1CC[C@H]2[C@@H]3[C@H](O)C[C@@H]4C[C@H](O)CC[C@]4(C)[C@H]3C[C@H](O)[C@]12C)[C@H]1CC[C@H]2[C@@H]3[C@H](O)C[C@@H]4C[C@H](O)CC[C@]4(C)[C@H]3C[C@H](O)[C@]12C.Cl [A-HCl]
gene transfer activity compared to controls (bladder): significantly above those levels obtained by controls

Molecule: C[C@H](CCC(=O)NCCS(=O)(=O)O)[C@H]1CC[C@H]2[C@@H]3CC[C@@H]4C[C@H](O)CC[C@]4(C)[C@H]3C[C@H](O)[C@]12C [Taurodeoxycholate, reference compound]
gene transfer to the bladder epithelium (Table I) (bladder epithelium [1]): enhanced gene transfer dramatically

Molecule: C[C@H](CCC(=O)N(CCCNC(=O)[C@H](O)[C@@H](O)[C@H](O)[C@H](O)CO)CCCNC(=O)[C@H](O)[C@@H](O)[C@H](O)[C@H](O)CO)[C@H]1CC[C@H]2[C@@H]3[C@H](O)C[C@@H]4C[C@H](O)CC[C@]4(C)[C@H]3C[C@H](O)[C@]12C [purified Big CHAP (CALBIOCHEM®)]
gene transfer and expression (bladder epithelium [2]): only slightly enhanced; also recorded: reduced ability to enhance gene transfer

Molecule: COC(=O)CC[C@@H](C)[C@H]1CC[C@H]2[C@@H]3[C@H](O)C[C@@H]4C[C@H](O)CC[C@]4(C)[C@H]3C[C@H](O)[C@]12C [Impurity I]
cystitis / bladder irritation (bladder epithelium [2]): caused cystitis
cystitis / bladder irritation (bladder epithelium [2]; listed as Impurity 1): bladder irritation
β-galactosidase gene expression in the bladder epithelium (bladder epithelium [2]; impurities diluted in VPBS, 0.6 mg/ml or 6 mg/ml): did not lead to increased β-galactosidase gene expression

Molecule: C[C@H](CCC(=O)N(CCCNC(=O)[C@H](O)[C@@H](O)[C@H](O)[C@H](O)CO)CCCNC(=O)[C@H](O)[C@@H](O)[C@H](O)[C@H](O)CO)[C@H]1CC[C@H]2[C@@H]3[C@H](O)C[C@@H]4C[C@H](O)CC[C@]4(C)[C@H]3C[C@H](O)[C@]12C [Big CHAP, N,N,bis-(3-D-gluconamidopropyl)-cholamide, reference compound]
solubility in water / aqueous solutions (in words) [3]: highly water soluble
